The nature of assay [1]: viability of PTEN-deleted HCT116 cells – cell-based, HCT116 PTEN knockout, dose response (AID 1047).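 Note: HCT116 colon tumor cells with PTEN knocked out; cells exposed to compound for 60 hours before readout.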 The assay is classed as functional.
The nature of assay [2]: viability of HCT116 lacking mutant beta-catenin – cell-based, human colon tumor, dose response (AID 1045).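 Note: HCT116 colon tumor cells with beta catenin knocked out; cells exposed to compound for 60 hours.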 The assay is classed as functional.
The subject of a further assay is CHO. The experiment in a line: CHO cell viability loss, potency – luminescence, cytotoxicity control for TLR9-MyD88 binding inhibitor project, dose response (AID 588339).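 Note: CHO cells stably coexpressing TLR9 and MyD88 fusions from primary screen; compound exposure lasted 48 hours before viability readout.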 In kind it is functional, cell-based, hamster. Conditions: Cricetulus griseus.
In the next assay the target is Beta Lactamase (Pseudomonas aeruginosa, UniProt Q932Y6). Nature of the assay: BLA reporter interference, concentration series – BLA reporter cells, FRET fluorescence, artefact control for TLR9-MyD88 binding inhibitor project, dose response (AID 588341).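 Note: cell based assay in CHO-K1 cells stably expressing beta-lactamase.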 The assay is classed as cell-based.
The next assay addresses DNA topoisomerase (Yersinia pestis, UniProt A0A2S9PM60). Nature of the assay: Yersinia topoisomerase I cleavage product accumulation – biochemical, cherry-pick, dose response (AID 588525).
The next assay relates to HeLa. The experiment in a line: viability loss in HeLa cells – cell-based, 24 h, cherry-picked samples, cytotoxicity control, dose response (AID 504726). In kind it is functional. The conditions noted are these: Homo sapiens.
The next assay has as its target Troponin, cardiac muscle (Homo sapiens, UniProt P19429+P45379+P63316). Nature of the assay: Fluorescence-based biochemical high throughput dose response assay for activators of the calcium sensitivity of cardiac Regulated Thin Filaments (RTF). [Related pubchem assays (depositor defined):AID493008, AID493018, AID504382, AID504383]. The assay is classed as protein-complex assay.

Assay [3] in a line: NIH-3T3 fibroblast cytotoxicity, dose response, cytotoxicity control, cell-based, fluorescence, Alamar Blue, secondary assay (AID 2327).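 Note: NIH-3T3 mouse fibroblasts cultured with fluconazole at 8 µg/mL.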 The assay is classed as functional.
A short description of assay [4]: luciferase reporter signal suppression in cells – H4 neuroglioma cells, luminescence, dose response (AID 1990). The assay is classed as functional, cell-based. Background: A reporter such as luciferase makes a cellular process visible.
Assay [5] deals with Streptococcus sp. 'group A'. The experiment in a line: Streptococcus pyogenes SK(-)GAS viability under kanamycin – luminescence, BacTiterGlo, confirmation, counter-screen for streptokinase expression inhibitor project, dose response (AID 1900). The assay is classed as functional, organism-based.
The nature of assay [6]: Luminescence Cell-Based Dose Response HTS to Identify Inhibitors of 5'UTR Stem-Loop Driven Prion Protein mRNA Translation in H4 Neuroglioblastoma Cells. [Related pubchem assays: 1827 (Project Summary), 1813 (Primary HTS)]. In kind it is functional.
Assay [7] is described as follows: alpha-synuclein stem-loop luciferase translation blockers – H4 neuroglioma cells, luminescence, confirmation (AID 1988). The assay is classed as functional, cell-based.
Another assay addresses T1, Streptokinase A (Streptococcus pyogenes serotype M1, UniProt P10520).
T1 sequence (P10520 whole entry): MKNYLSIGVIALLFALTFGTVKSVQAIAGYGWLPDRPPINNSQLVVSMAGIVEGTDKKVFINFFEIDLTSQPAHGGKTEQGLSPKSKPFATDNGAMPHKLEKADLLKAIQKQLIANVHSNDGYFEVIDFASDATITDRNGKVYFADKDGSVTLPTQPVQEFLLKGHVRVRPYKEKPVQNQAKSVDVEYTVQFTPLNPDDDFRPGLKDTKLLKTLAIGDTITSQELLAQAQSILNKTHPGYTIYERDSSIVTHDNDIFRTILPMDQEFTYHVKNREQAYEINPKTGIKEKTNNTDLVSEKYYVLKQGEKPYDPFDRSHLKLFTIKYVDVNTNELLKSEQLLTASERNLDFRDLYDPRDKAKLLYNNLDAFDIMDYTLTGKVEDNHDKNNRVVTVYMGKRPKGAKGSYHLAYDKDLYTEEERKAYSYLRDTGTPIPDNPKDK
The experiment in a line: viability-normalized secreted streptokinase activity reduction – plasminogen activation absorbance, OD405, dose response (AID 1914).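 Note: secreted streptokinase activity via plasminogen activation per viability signal from cell pellet.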 The assay is classed as functional, Streptococcus pyogenes M1 GAS.

Assay [8] in a line: fluconazole-exposed Candida albicans growth modulators – fluorescence, retest, confirmation (AID 2467). In kind it is functional, cell-based.
For assay [9], the target named is Serine/threonine-protein phosphatase (Candida dubliniensis (strain CD36 / CBS 7987 / NCPF 3949 / NRRLY-17841) (Yeast), UniProt B9W6M3). Nature of the assay: blockers of CaCl2-induced CDRE-lacZ signaling – S. cerevisiae, luminescence, secondary, dose response (AID 2388).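 Note: yeast reporter cells carrying a calcineurin-responsive lacZ construct stimulated with calcium chloride; luminescent beta-galactosidase reporter signal in whole cells rather than isolated phosphatase activity; potency for inhibition where a drop in reporter signal means calcineurin blockade.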 In kind it is functional, cell-based.
Another assay has as its system Streptococcus. The experiment in a line: GAS UMAA2166 growth inhibition – luminescence, BacTiterGlo, counter-screen for streptokinase expression inhibitor project, dose response (AID 1915).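 Note: potency for reduction of bacterial viability or growth.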 In kind it is functional, organism-based.
Assay [10] addresses ATP-dependent molecular chaperone HSP82 (Candida albicans (strain WO-1) (Yeast), UniProt C4YTQ8). Nature of the assay: steroid-induced GRE reporter decrease in yeast – S. cerevisiae, luminescence, Hsp90 inhibitor project, dose response (AID 2400).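 Note: beta-galactosidase luminescence from glucocorticoid response element reporter as proxy for Hsp90 function; inhibitor potency where signal loss means Hsp90 inhibition.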 The assay is classed as functional, cell-based.
Assay [11] can be described thus: non-specific 3'UTR reporter inhibition in Clone20-Shn3RL – cell-based, Renilla luciferase, cherry-picked, counter-screen for Shn3 inhibitor project, dose response (AID 624133). In kind it is functional. For orientation: A counterscreen serves to expose hits that act by an unwanted route or on another target.
For a further assay, the target named is T2, Galanin receptor type 3 (Homo sapiens, UniProt O60755).
T2 sequence (O60755 whole entry): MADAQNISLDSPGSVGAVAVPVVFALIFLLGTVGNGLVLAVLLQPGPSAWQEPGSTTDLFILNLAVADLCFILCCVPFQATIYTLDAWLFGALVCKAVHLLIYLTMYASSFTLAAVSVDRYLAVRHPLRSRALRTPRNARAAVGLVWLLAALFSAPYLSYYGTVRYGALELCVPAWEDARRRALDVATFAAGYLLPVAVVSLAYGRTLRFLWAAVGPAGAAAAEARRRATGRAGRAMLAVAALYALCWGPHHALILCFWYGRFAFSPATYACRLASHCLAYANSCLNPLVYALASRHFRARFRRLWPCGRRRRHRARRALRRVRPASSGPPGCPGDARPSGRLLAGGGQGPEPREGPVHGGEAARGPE
The experiment in a line: Fluorescence-based cell-based primary high throughput dose response assay to identify antagonists of the Galanin Receptor 3 (GalR3). The assay is classed as functional.

A further assay can be described thus: cells. The assay is classed as functional, cell-based. The conditions noted are these: HEK-CNG.
Assay [12] has as its target T3, COUP transcription factor 2 (Homo sapiens, UniProt P24468).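 Note: HEK293 cells transiently cotransfected with COUP-TFII expression vector and reporter; luciferase reporter luminescence driven by COUP-TFII from the pX2-168 reporter plasmid.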
T3 sequence (P24468 whole entry): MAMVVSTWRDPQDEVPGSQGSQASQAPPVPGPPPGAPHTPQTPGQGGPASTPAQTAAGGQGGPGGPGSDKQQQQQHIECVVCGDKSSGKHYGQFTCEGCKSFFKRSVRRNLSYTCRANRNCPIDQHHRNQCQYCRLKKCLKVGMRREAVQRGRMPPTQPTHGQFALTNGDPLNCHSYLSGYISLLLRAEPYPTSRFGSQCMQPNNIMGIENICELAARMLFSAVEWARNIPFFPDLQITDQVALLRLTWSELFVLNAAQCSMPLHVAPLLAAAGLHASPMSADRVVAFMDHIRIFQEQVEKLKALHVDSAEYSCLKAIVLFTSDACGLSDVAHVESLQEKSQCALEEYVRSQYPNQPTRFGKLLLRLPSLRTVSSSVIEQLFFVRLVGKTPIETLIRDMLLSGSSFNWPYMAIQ
The experiment in a line: Luminescence-based cell-based high throughput dose response assay to identify inhibitors of COUP-TFII (NR2F2). The assay is classed as functional.

The structures appear in SMILES notation. The source made the active and inactive calls. Bounds are passed on as bounds.

This is an account of results in ChEMBL document CHEMBL1201862, “PubChem BioAssay data set” (2004).

Broadly, the EC50 is the concentration giving half of the maximal effect. What is called IC50 is the concentration at which inhibition is half-maximal. By AC50 is commonly meant the midpoint of the concentration-response curve, whichever way the signal moves.

Chain of DNA topoisomerase (A0A2S9PM60 whole entry): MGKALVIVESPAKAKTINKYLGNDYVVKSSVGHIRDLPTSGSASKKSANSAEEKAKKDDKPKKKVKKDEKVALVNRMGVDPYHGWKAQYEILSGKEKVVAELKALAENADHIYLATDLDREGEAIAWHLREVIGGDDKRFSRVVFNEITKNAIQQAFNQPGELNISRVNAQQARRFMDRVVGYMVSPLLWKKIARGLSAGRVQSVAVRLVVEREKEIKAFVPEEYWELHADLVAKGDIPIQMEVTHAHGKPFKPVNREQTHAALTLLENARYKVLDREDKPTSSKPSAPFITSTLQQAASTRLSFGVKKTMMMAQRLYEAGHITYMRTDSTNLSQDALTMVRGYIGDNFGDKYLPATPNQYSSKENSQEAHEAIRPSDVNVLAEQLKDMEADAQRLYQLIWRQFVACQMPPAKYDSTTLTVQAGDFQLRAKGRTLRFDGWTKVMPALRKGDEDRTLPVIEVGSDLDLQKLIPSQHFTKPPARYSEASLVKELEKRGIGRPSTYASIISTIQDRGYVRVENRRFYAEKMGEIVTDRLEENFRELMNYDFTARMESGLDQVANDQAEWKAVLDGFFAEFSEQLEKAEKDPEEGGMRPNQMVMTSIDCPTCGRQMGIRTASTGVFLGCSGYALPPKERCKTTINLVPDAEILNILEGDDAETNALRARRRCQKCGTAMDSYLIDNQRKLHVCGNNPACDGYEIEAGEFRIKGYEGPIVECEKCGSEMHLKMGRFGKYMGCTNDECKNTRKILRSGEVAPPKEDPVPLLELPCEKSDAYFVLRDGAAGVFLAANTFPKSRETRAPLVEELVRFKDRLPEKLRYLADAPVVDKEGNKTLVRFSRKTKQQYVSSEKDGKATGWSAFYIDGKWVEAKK
Chain of Beta Lactamase (Q932Y6 whole entry): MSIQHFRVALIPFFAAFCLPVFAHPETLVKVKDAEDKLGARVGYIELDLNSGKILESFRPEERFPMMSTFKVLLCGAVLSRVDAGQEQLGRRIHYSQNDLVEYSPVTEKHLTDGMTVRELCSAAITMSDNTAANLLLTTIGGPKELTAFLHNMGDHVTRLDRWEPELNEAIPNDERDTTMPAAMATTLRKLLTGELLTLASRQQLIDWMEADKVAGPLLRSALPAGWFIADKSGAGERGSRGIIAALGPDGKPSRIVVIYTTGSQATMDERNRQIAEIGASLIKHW
Chain of Serine/threonine-protein phosphatase (B9W6M3 whole entry): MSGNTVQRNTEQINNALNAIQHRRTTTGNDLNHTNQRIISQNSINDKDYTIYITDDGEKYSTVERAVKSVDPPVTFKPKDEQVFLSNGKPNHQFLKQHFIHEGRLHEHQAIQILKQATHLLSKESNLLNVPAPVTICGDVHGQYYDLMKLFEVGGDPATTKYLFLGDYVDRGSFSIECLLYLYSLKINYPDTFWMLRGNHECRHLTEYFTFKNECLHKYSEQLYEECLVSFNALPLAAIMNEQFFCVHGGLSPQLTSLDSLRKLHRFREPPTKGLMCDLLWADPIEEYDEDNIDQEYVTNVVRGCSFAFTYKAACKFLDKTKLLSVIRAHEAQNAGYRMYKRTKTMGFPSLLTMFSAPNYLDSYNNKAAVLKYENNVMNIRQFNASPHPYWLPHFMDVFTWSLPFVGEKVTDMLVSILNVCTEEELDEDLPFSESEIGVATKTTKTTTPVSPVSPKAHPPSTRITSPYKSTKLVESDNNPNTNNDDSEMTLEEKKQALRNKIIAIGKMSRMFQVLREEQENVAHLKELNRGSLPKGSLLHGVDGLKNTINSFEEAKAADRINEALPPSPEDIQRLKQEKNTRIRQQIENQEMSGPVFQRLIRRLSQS
Chain of ATP-dependent molecular chaperone HSP82 (C4YTQ8 whole entry): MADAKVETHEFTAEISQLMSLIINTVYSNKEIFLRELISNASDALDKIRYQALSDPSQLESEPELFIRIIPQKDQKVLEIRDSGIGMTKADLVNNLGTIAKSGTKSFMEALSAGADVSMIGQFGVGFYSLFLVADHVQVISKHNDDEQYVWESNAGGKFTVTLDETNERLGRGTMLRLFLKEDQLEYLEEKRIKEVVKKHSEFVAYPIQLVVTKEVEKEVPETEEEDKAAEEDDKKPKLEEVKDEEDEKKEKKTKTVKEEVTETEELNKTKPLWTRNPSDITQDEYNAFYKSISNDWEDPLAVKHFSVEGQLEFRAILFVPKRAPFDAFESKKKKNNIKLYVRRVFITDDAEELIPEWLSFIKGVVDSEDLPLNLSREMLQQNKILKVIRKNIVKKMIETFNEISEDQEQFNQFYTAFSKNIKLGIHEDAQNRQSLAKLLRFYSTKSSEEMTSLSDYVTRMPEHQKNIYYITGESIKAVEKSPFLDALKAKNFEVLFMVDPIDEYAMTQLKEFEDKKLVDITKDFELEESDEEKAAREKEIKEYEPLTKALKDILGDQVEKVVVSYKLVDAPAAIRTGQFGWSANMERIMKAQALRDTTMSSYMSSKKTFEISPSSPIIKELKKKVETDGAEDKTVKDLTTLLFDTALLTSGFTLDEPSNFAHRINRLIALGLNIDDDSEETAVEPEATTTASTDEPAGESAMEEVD

As to `O=C(/C=C/c1cn(CC(O)CN2CCCCCC2)c2ccccc12)c1cccs1` (centres undefined), the EC50 in [1] is 14.1 µM (active); in assay [2], 11.9 µM (active). Moreover, the IC50 was 20.1 µM (inactive) in the assay on CHO and 8.35 µM (active) on Beta Lactamase.
On to `CC(C)CN(C(=O)COC(=O)c1c2c(nc3ccccc13)CCC2)c1c(N)n(Cc2ccccc2)c(=O)[nH]c1=O`, for which the AC50 on DNA topoisomerase is > 38 µM (inactive).
The same measure, in the same setting: with `CC(C)C(=O)N1CCN(c2nc(-c3ccc(Cl)cc3)cs2)CC1` the figure was 1.72 µM (active).
`O=C1c2cccc3c(N4CCCCC4)ccc(c23)C(=O)N1c1cccc(O)c1`: the AC50 in the assay on HeLa was 81.5 µM (active). Also, at Troponin, cardiac muscle, the EC50 was 1.83 µM (active). Besides, the IC50 with CHO is > 49.7 µM (inactive); on Beta Lactamase, 5.24 µM (active).
For `CC(C)(C)c1ccc(CSc2cnn(C(C)(C)C)c(=O)c2Cl)cc1` [PYRIDABEN], the EC50 was 103 µM (active) in [3]; > 120 µM (not active) in assay [4]; 4.13 µM (active) in assay [5]; > 120 µM (not active) in assay [6]; > 120 µM (not active) in assay [7]; 20.8 µM (active) at Streptokinase A. The EC50 is 0.211 µM (active) in assay [8]; > 180 µM (inactive) in [9]; 123 µM (active) with Streptococcus; > 160 µM (inactive) in assay [10]; > 29.9 µM (inactive) in “cells”. Further, the AC50 in assay [11] is < 0.26 µM (active). Moreover, the figures for the IC50 (at Galanin receptor type 3; in assay [12]) were 0.00657 µM (active) and 0.0619 µM (active), respectively.
